According to US10722505B2, “Substituted 2,4 diamino-quinoline as new anticancer agents” (GENOSCIENCE PHARMA, priority 2014, dated 2020):
Counter-ions that a name gives are not always drawn.

Legend:
[1] = tested on: LI1005 HCC patient derived cells; assay: CellTiter-Glo growth inhibition, HCC patient-derived cells LI1005; type: cell-based, human; details: Homo sapiens; LI1005, 72 hours
Experimental: (§1) The patient derived Hepatocellular Carcinoma (HCC) cells were maintained in medium respectively described in table 15 containing 1% penicillin-streptomycin (Life Technologies, 15070-063), with a supplements for primary cell culture (PCS) containing hydrocortisone (50 nM), Epidermal Growth Factor (20 ng/ml), β-fibroblast Growth Factor (10 ng/ml), Heparin (2 μg/ml) ITS liquid media supplement (1×) and non-essential amino acid (NEAA, 0.01 mM, 1×). The primary cell were cultured in a humidified atmosphere (95% relative humidity) with 5% CO2 at 37° C.
(§2) The cell growth inhibition assay was performed as described previously in example 5 using the CellTiter-Glo® luminescent cell viability assay as described by the manufacturer (Promega, Ref G7571). The number of cells seeded per well (in 96-Well Flat Clear Bottom Black Polystyrene TC-Treated Microplates, Cat #3340, Corning®) is described in the table 16. A backseal black sticker (Cat #6005189, Perkin Elmer) was placed to the bottom of each plate before recording CellTiter-Glo® luminescence.
(§3) The experimental data are analyzed using a computer program, Graphpad Prism V 5.0 (GraphPad Software, Inc. La Jolla, Calif.) and EC50 values were determined as the dose of compound required to reduce absorbance values to 50% of the signal obtained for vehicle treated cell cultures and were a mean of at least three independent experiments.

[2] = tested on: Hep3B-Luc cell line; assay: CellTiter-Glo growth inhibition assay, Hep3B-Luc; type: cell-based; details: Homo sapiens, Hep 3B-Luc, 72 h
Experimental: Before compound treatment, the compound was dissolved in H2O to make a 10 mM stock solution. The working solutions (5 folds final concentrations) were then prepared with MEM medium (Gibco, 1128319) containing 10% Fetal Bovine Serum (Gibco, 10099141).
Hep3B-Luc cell line (luciferase transfected human liver carcinoma cell line for orthotopic tumor model) was cultured in MEM Medium supplemented with 10% v/v Fetal Bovine Serum (FBS), 1% Penicillin-Streptomycin and maintained at 37° C. with 5% CO2. 800 cells were plated onto 384-well flat clear bottom white (Corning, 3707).
Cells in log-phase are collected and counted. Cell suspensions are added to each well of 384-well plate at 800 cells per well (total volume 40 μl). The margin wells are filled with PBS buffer. Test compound at various concentrations are added in duplicates (add 10 μl 5× compound solutions to the plate). The assay plate is incubated for 72 h in 37° C./5% CO2 incubator. Cell viability was measured using the CellTiter-Glo® luminescent cell viability assay as described by the manufacturer (Promega, Ref G7571). After addition of 100 μL of CellTiter-Glo® reactifs solution, luminescence was measured using a PHERAstar Plus luminometer. Data were recorded by PHERAstar Plus, Data acquisition and analysis were performed using Microsoft Excel program and GraphPad Prism v.6 software.

[3] = tested on: HCT-116 cell line; assay: CellTiter-Glo growth inhibition assay, HCT-116; type: cell-based; details: Homo sapiens; HCT-116, colorectal carcinoma, 72 h
Experimental: (§4) All cell lines were maintained in medium containing 1% penicillin-streptomycin (Dutscher, P06-07100) and 10% Fetal Bovine Serum (Gibco, W3387L) except 20% for KG-1 cell line and PBMC, and cultured at 37° C. with 5% CO2.
(§5) HepG2, Huh7, HCT-116, MDA-MB-231 and A375 cell lines were cultured in Dulbecco's modified Eagle's medium (Dutscher, L0103).
(§6) Cell viability was measured using the CellTiter-Glo® luminescent cell viability assay as described by the manufacturer (Promega, Ref G7571) using an Infinite F200Pro luminometer (Tecan). Briefly, for adherent cells, cells were plated onto 96-well plates (white with clear bottom) in 90 μL of media per well and were allowed to grow overnight before the assay. For cells growing in suspension, cells were plated onto 96-well plates immediately before the assay.
(§7) Compounds were added at different concentrations to each well, and cell cultures were incubated for 72 h. Vehicle (H2O) was used as a control, and all compounds were tested in a constant percentage of H2O. After addition of 100 μL of CellTiter-Glo®, luminescence was measured using an Infinite F200Pro (Tecan). EC50 values were determined as the dose of compound required to reduce luminescent values to 50% of the signal obtained for untreated cell cultures. The experimental data were analyzed using a computer program, Graphpad Prism v5 (GraphPad Software, Inc. La Jolla, Calif.). […]

[4] = tested on: MRC-5 cell line; assay: CellTiter-Glo growth inhibition assay, MRC-5; type: cell-based; details: MRC5; MRC-5, human fetal lung fibroblast, 72 h
Experimental: as §4
MRC-5 cell line was maintained in MEM (Dutscher, L0416).
as §6
Compounds were added at different concentrations to each well, and cell cultures were incubated for 72 h. Vehicle (H2O) was used as a control, and all compounds were tested in a constant percentage of H2O. After addition of 100 μL of CellTiter-Glo®, luminescence was measured using an Infinite F200Pro (Tecan). EC50 values were determined as the dose of compound required to reduce luminescent values to 50% of the signal obtained for untreated cell cultures. The experimental data were analyzed using a computer program, Graphpad Prism v5 (GraphPad Software, Inc. La Jolla, Calif.).
All experiments were at least done in duplicate and repeated two independent times.

[5] = tested on: LI0612 HCC patient derived cells; assay: CellTiter-Glo growth inhibition, HCC patient-derived cells LI0612; type: cell-based, human; details: Homo sapiens; LI0612, 72 hours
Experimental: as §1, §2, §3

[6] = tested on: HepG2 cell line; assay: CellTiter-Glo growth inhibition assay, HepG2; type: cell-based; details: Homo sapiens; HepG2, hepatocellular carcinoma, 72 h
Experimental: as §4, §5, §6, §7

[7] = tested on: LI0801 HCC patient derived cells; assay: CellTiter-Glo growth inhibition, HCC patient-derived cells LI0801; type: cell-based, human; details: Homo sapiens; LI0801, 72 hours
Experimental: as §1, §2, §3

[8] = tested on: LI1098 HCC patient derived cells; assay: CellTiter-Glo growth inhibition, HCC patient-derived cells LI1098; type: cell-based, human; details: Homo sapiens; LI1098, 72 hours
Experimental: as §1, §2, §3

- EC50 [1]: 3200 nM
- EC50 [2]: 1100 nM
- EC50 [3]: 1600 nM
- EC50 [5]: 6900 nM
- EC50 [6]: 900 nM
- EC50 [7]: 2100 nM
- EC50 [8]: 7000 nM
Structure (SMILES): CC(C)(C)NC1CCN(c2cc(NCc3ccc(Cl)cc3)nc3ccccc23)CC1 [Compound 2-3, 2-(4-chlorobenzylamino)-4-(4-tert-butylaminopiperidin-1-yl)-quinoline hydrochloride salt]
- EC50 [4]: ~3400 nM
